Experimental data from article PMC6688628, “N-Substituted Pyrrole Derivative 12m Inhibits HIV-1 Entry by Targeting Gp41 of HIV-1 Envelope Glycoprotein” (Frontiers in Pharmacology, 2019).

How the values were obtained:
[1] = tested on: HIV-1 NL4-3(36G)V38A,N42T; conditions: T20-resistant NL4-3(36G)V38A,N42T; p24 ELISA; mean ± SD
gp41 6-HB (N36/C34) [2] = molecular target: T1, gp41 6-HB (N36/C34) (Human immunodeficiency virus type 1 group M subtype B, UniProt P04578); test: N-PAGE for gp41 6-HB formation; assay type: biochemical, HIV-1; conditions: 400, 200, 100, 50, and 25 μM incubated with N36 before C34; dose-dependent
T1 construct: purchased GL Biochem of China; host or cells: chemical solid-phase Fmoc synthesis
Experimental: The inhibition of gp41 6-HB formation by NSPD-12m was further confirmed by N-PAGE as reported previously ([Liu et al., 2005]). Briefly, NSPD-12m at the indicated concentrations was incubated with the peptide N36 (100 μM in PBS) at 37°C for 30 min before the addition of the peptide C34 (100 μM in PBS). After incubation at 37°C for another 30 min, the mixture was diluted in Tris-glycine native sample buffer (Invitrogen, Carlsbad, CA) and then loaded onto 10 × 1.0-cm precast Tris-glycine gels (18%, Invitrogen) at 20 µl/well. Gel electrophoresis was carried out at constant voltage of 120 V at room temperature (RT) for 2 h in Tris-glycine native running buffer. Immediately after electrophoresis, the gel was stained by Coomassie blue (Invitrogen) and imaged by the FluorChem 8800 Imaging System (Alpha Innotech, San Leandro, CA). ADS-J1 (1 mM in PBS), a small-molecule HIV-1 entry inhibitor that blocks gp41 6-HB formation, was used as a positive control ([Wang et al., 2009]).

gp41 6-HB (N36/C34) [3] = molecular target: T1, gp41 6-HB (N36/C34); test: Sandwich ELISA for gp41 6-HB formation; assay type: biochemical, HIV-1; conditions: sandwich ELISA with mAb NC-1; 0.5-µM N36 and C34
Experimental: The inhibition of gp41 6-HB formation by NSPD-12m was determined by a sandwich ELISA as previously described ([Liu et al., 2007]). In brief, the wells of a 96-well polystyrene plate (Corning) were first precoated with 2 µg/ml IgG purified from rabbit antisera against the N36/C34 complex at 4°C overnight. In addition, the wells were blocked by 2% dry nonfat milk at 37°C for 1 h. NSPD-12m at graded concentrations was incubated with 0.5-µM N36 at 37°C for 30 min, followed by the addition of 0.5-µM C34 at 37°C for another 30-min incubation. Afterward, the previously mentioned mixtures were added to the prepared wells and incubated at 37°C for another 1 h. Then, 1 µg/ml mAb NC-1, biotin-labeled goat anti-mouse IgG (1:10,000 diluted in PBS buffer with 2% dry nonfat milk), SA-HRP (1:20,000 diluted in PBS buffer with 10% goat serum), TMB, and 1-M H2SO4 were added sequentially. A450 was measured by an ELISA reader, and EC50 was calculated using CalcuSyn software ([Chou and Talalay, 1984]). NB-64, a small-molecule HIV entry inhibitor targeting gp41, and ADS-J1 were used as positive controls.

T1 sequence (P04578 546-581): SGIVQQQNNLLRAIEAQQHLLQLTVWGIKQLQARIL

Cc1cc(/C=C2\SC(=S)N(Cc3ccccc3C(F)(F)F)C2=O)c(C)n1-c1ccc(O)c(C(=O)O)c1 [NSPD-12m]
IC50 [1]: 16.3 ± 3.03 µM | IC90 [1]: 33.9 ± 6.14 µM | intensity of the 6-HB band (upper position) in N-PAGE (gp41 6-HB (N36/C34) [2]): decreased | EC50 (gp41 6-HB (N36/C34) [3]): 23 ± 1.44 µM
